Patent publication US20100009405A1, “Biosynthetic process for the preparation of gallidermin” (priority 2005, published 2010)
Values after ≈ are worked out from the molar mass of the structure shown. Ends that are not written are not given here.

Legend:
[1] = system: S. gallinarum (pGV5); assay: Minimum inhibitory concentration of kanamycin used for selection; type: cell-based, Staphylococcus gallinarum; conditions: B-medium
Experimental: FIG. 4 is a schematic representation of the strategy employed for the selection of gdmP knock-out strains. Cm: chloramphenicol; Kan: kanamycin; MIC: minimum inhibitory concentration; R: resistance; S: sensitivity;
A first S. gallinarum (pGV5) culture was started inoculating 10 ml kanamycin-supplemented ([…]) B-medium with a single colony of a transformed cell. Culture was incubated shaking with 225 rpm at 30° C., a temperature that allowed pGV5 to replicate as free plasmid (permissive temperature), until late stationary phase (16h). With this culture, new cultures were inoculated (1:100) and incubated shaking with 225 rpm at 30° C. into the late stationary phase (16 h). […] This step was repeated once, before diluting the cultures 1:100 into 100 ml B-medium containing no antibiotic. Growth at 40° C. was extended for another 24 hours.

[2] = system: sensitive test strain; assay: Test-disc bioassay of antibacterial activity of gallidermin preparations; type: cell-based; conditions: dilutions of stock solutions on test discs, same concentrations
Experimental: FIGS. 12A and B show the result of the proteolytic (trypsin) conversion of pregallidermins into gallidermin. […] Dilutions for a stock solution of either compound were applied onto test discs and incubated in the presence of a sensitive test strain. […] Pre-gallidermins (1.09 g/l) were incubated with trypsin (0.2 g/l) 1 h, RT, pH 6.5,
Of all proteases examined, only trypsin appeared to be suitable for a commercial and industrialised process. […] We have disclosed the feasibility to selectively cleave pre-gallidermins into mature gallidermin using serine-type proteases and trypsin in particular. While we have employed soluble enzyme preparations, alternatives, such as immobilized enzyme preparations, could be used instead. This would facilitate the repetitive use of such enzymes and avoid possible contaminations of the final product by trypsin, even though, trypsin is generally regarded as safe (GRAS).

Row | Molecule | MIC value [1] | bioactivity compared with gallidermin isolated from the wild-type strain [2]
1 | NC[C@H]1O[C@H](O[C@H]2[C@H](O)[C@@H](O[C@H]3O[C@H](CO)[C@@H](O)[C@H](N)[C@H]3O)[C@H](N)C[C@@H]2N)[C@H](O)[C@@H](O)[C@@H]1O [kanamycin] | 7500 µg/mL (≈ 15.5 mM) | 
2 | gallidermin [in-situ activated gallidermin] (IASKFLCTPGCAKTGSFNSYCC; also: lantibiotic with dehydroamino residues and thioether bridges, places not given here, in-situ activated form; UniProt P21838 31-52, looked up) |  | same bioactivity
